The source of these data is patent US7335671B2, “Arylcycloalkyl-substituted alkanoic acid derivatives, processes for their preparation and their use as pharmaceuticals” (Sanofi-Aventis Deutschland GmbH, priority 2003, dated 2008).

In the assay the target is T1, PPARalpha (Homo sapiens, UniProt Q07869).
T1 construct: human PPARalpha receptor (amino acids S167-Y468); expressed in transfected cells; host or cells: HEK (human embryo kidney) cells, stably transfected; pcDNA3 vector, CMV promoter
T1 sequence (Q07869 167-468): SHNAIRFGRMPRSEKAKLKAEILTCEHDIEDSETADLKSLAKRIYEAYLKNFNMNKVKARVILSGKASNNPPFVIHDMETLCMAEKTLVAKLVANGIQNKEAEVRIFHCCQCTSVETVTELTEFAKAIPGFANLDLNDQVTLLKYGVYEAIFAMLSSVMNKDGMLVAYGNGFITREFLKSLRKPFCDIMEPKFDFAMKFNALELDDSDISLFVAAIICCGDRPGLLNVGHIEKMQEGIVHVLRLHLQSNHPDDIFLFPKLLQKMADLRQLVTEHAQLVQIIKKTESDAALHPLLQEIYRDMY
The experiment in a line: Cellular PPARalpha assay (stably transfected HEK luciferase reporter cell line). It counts as cell-based. Particulars: GR-GAL4-humanPPARalpha-LBD. The protocol:
Determination of EC50 Values of PPAR agonists in the Cellular PPARalpha Assay
The potency of substances which bind to human PPARA and activate in an agonistic manner is analyzed using a stably transfected HEK cell line (HEK =human embryo kidney) which is referred to here as PPARalpha reporter cell line. It contains two genetic elements, a luciferase reporter element (pδM-GAL4-Luc-Zeo) and a PPARalpha fusion protein (GR-GAL4-humanPPARα-LBD) which mediates expression of the luciferase reporter element depending on a PPARalpha ligand. The stably and constitutively expressed fusion protein GR-GAL4-humanPPARalpha-LBD binds in the cell nucleus of the PPARalpha reporter cell line via the GAL4 protein portion to the GAL4 DNA binding motifs 5′-upstream of the luciferase reporter element which is integrated in the genome of the cell line. There is only little expression of the luciferase reporter gene without addition of a PPARalpha ligand if fatty acid-depleted fetal calf serum (cs-FCS) is used in the assay. PPARα ligands bind and activate the PPARα fusion protein and thereby bring about expression of the luciferase reporter gene. The luciferase which is formed can be detected by means of chemiluminescence via an appropriate substrate.
The PPARalpha reporter cell line was prepared in 2 stages. Firstly, the luciferase reporter element was constructed and stably transfected into HEK cells. For this purpose, five binding sites of the yeast transcription factor GAL4 (each 5′-CGGAGTACTGTCCTCCGAG-3′) (SEQ ID No. 1) were cloned in 5′-upstream of a 68 bp-long minimal MMTV promoter (Genbank Accession # V01 175). The minimal MMTV promoter section contains a CCAAT box and a TATA element in order to enable efficient transcription by RNA polymerase 11. The cloning and sequencing of the GAL4-MMTV construct took place in analogy to the description of Sambrook J. et. al. (Molecular cloning, Cold Spring Harbor Laboratory Press, 1989). Then the complete Photinus pyralis gene (Genbank Accession # M15077) was cloned in 3′-downstream of the GAL4-MMTV element. After sequencing, the luceriferase reporter element consisting of five GAL4 binding sites, MMTV promoter and luciferase gene was recloned into a plasmid which confers zeocin resistance in order to obtain the plasmid pδM-GAL4-Luc-Zeo. This vector was transfected into HEK cells in accordance with the statements in Ausubel, F. M. et al. (Current protocols in molecular biology, Vol. 1-3, John Wiley & Sons, Inc., 1995).
In a second step, the PPARalpha fusion protein (GR-GAL4-humanPPARalpha-LBD was introduced into the stable cell clone described. For this purpose, initially the cDNA coding for the N-terminal 76 amino acids of the glucocorticoid receptor (Genbank Accession # P04150) was linked to the cDNA section coding for amino acids 1-147 of the yeast transcription factor GAL4 (Genbank Accession # P04386). The cDNA of the ligand-binding domain of the human PPARalpha receptor (amino acids S167-Y468; Genbank Accession # S74349) was cloned in at the 3′-end of this GR-GAL4 construct. The fusion construct prepared in this way (GR-GAL4-humanPPARalpha-LBD) was recloned into the plasmid pcDNA3 (from Invitrogen) in order to enable constitutive expression therein by the cytomegalovirus promoter. This plasmid was linearized with a restriction endonuclease and stably transfected into the previously described cell clone containing the luciferase reporter element. The finished PPARalpha reporter cell line which contains a luciferase reporter element and constitutively expresses the PPARalpha fusion protein (GR-GAL4-human PPARalpha-LBD) was isolated by selection with zeocin (0.5 mg/ml) and G418 (0.5 mg/ml).
The activity of PPARalpha agonists is determined in a 3-day assay which is described below: […]

In turn, `CCC(CCO[C@@H]1CCC[C@H](OCc2nc(-c3ccc(F)cc3)oc2C)C1)C(=O)O` (stereo partly drawn) [Example 1, 2-Ethyl-4{(1R,3S)-3-[2-(4-fluorophenyl)-5-methyloxazol-4-ylmethoxy]-cyclohexyloxy}butanoic acid] gave an EC50 of 41 nM.
For the compound `Cc1cccc(-c2nc(CO[C@H]3CCC[C@@H](OCC4(C(=O)O)CC4)C3)c(C)o2)c1` [Example 5, (1R,3S)-1-[3-(5-methyl-2-m-tolyloxazol-4-ylmethoxy)cyclohexyloxymethyl]cyclo-propanecarboxylic acid], the 50% effective concentration (EC50) turned out to be 69 nM.
To `COCC(CO[C@@H]1CCC[C@H](OCc2nc(-c3cccc(C)c3)oc2C)C1)C(=O)O` (stereo partly shown) [Example 8, (1R′,3S′)-2R/S-Methoxymethyl-3-[3-(5-methyl-2-m-tolyloxazol-4-ylmethoxy)cyclo-hexyloxy]propionic acid] belongs 24 nM; to `Cc1cccc(-c2nc(CO[C@H]3CCC[C@@H](OCC(OCc4ccc(C(C)(C)C)cc4)C(=O)O)C3)c(C)o2)c1` (stereo partly drawn) [Example 18, 3-[(1R,3S)-3-(5-Methyl-2-m-tolyloxazol-4-ylmethoxy)cyclohexyloxy]-2-(4-tert-butylbenzyloxy)propanoic acid], 1.5 nM.
In the case of `C#CCOC(CO[C@@H]1CCC[C@H](OCc2nc(-c3cccc(C)c3)oc2C)C1)C(=O)O` (stereo partly drawn) [Example 22, 3-[(1R,3S)-3-(5-Methyl-2-m-tolyloxazol-4-ylmethoxy)cyclohexyloxy]-2-(2-propynyl-oxy)propionic acid] it was 43 nM.
To `Cc1cccc(-c2nc(CO[C@H]3CCC[C@@H](OCC(OC/C=C/c4ccccc4)C(=O)O)C3)c(C)o2)c1` (stereo partly drawn) [Example 25, 3-[(1R,3S)-3-(5-Methyl-2-m-tolyloxazol-4-ylmethoxy)cyclohexyloxy]-2-(3-phenyl-2-propenyloxy)propionic acid] belongs 6.2 nM; to `COC(CO[C@@H]1CCC[C@H](OCc2nc(-c3ccc4ccccc4c3)oc2C)C1)C(=O)O` (stereo partly drawn) [Example 35, 2-Methoxy-3-{(1R,3S)-3-[5-methyl-2-(3-naphthyl)oxazol-4-ylmethoxy]cyclohexyl-oxy}propionic acid], 84 nM; to `COC(CO[C@@H]1CCC[C@H](OCc2nc(-c3ccc(C)cc3C)oc2C)C1)C(=O)O` (stereo partly drawn) [Example 36, 2-Methoxy-3-{(1R,3S)-3-[5-methyl-2-(2,4-dimethylphenyl)oxazol-4-ylmethoxy]-cyclohexyloxy}propionic acid], 14 nM.
As to `CCCOC(CO[C@@H]1CCC[C@H](OCc2nc(-c3ccc(C)cc3)oc2C)C1)C(=O)O` (stereo partly drawn) [Example 47, 3-{(1R,3S)-3-[5-Methyl-2-(4-methylphenyl)oxazol-4-ylmethoxy]cyclohexyloxy}-2-propoxypropionic acid], it took 0.8 nM to reach a half-maximal effect (EC50). Against the preceding compound, the EC50 is about 18-fold lower.
`CCCOC(CO[C@@H]1CCC[C@H](OCc2nc(-c3cccc(C(F)(F)F)c3)oc2C)C1)C(=O)O` (stereo partly drawn) [Example 52, 3-{(1R,3S)-3-[5-Methyl-2-(3-trifluoromethylphenyl)oxazol-4-ylmethoxy]cyclohexyl-oxy}-2-propoxypropionic acid] returned an EC50 of 22 nM.
In the case of `CCOC(CO[C@@H]1CCC[C@H](OCc2nc(-c3ccc(OC(F)(F)F)cc3)oc2C)C1)C(=O)O` (stereo partly drawn) [Example 60, 2-Ethoxy-3-{(1R,3S)-3-[5-methyl-2-(4-trifluoromethoxyphenyl)oxazol-4-ylmethoxy]-cyclohexyloxy}propionic acid] it was 26 nM.
To `Cc1ccc(-c2nc(CO[C@H]3CCC[C@@H](OC[C@@H](OCc4ccc(C(F)(F)F)cc4)C(=O)O)C3)c(C)o2)cc1` [Example 81, (R)-3-[(1R,3S)-3-(5-Methyl-2-(4-methylphenyl)oxazol-4-ylmethoxy)cyclohexyloxy]-2-(4-trifluoromethylbenzyloxy)propionic acid] belongs 0.6 nM; to `Cc1cccc(-c2nc(CO[C@H]3CCC[C@@H](OCC(Cc4cccc(C(F)(F)F)c4)C(=O)O)C3)c(C)o2)c1` (stereo partly drawn) [Example 91, 2-[(1R,3S)-3-(5-Methyl-2-m-tolyloxazol4-ylmethoxy)cyclohexyloxymethyl]-3-(3-trifluoromethylphenyl)propionic acid], 78 nM.
